{"source": "patent US12297192B2", "about": "“Crystal form of pyrimidine sulfonamide compound and preparation method therefor” (WUXI BIOCITY BIOPHARMACEUTICS CO., LTD., priority 2019, dated 2025)", "key": {"[1]": {"target": "T1, CYP1A2 (Homo sapiens, UniProt P05177)", "T1 construct": "Mixed human liver microsomes (HLM) were purchased from Corning Inc; tissue Corning Inc; host or cells: pooled human liver microsomes", "T1 sequence (P05177 1-516)": "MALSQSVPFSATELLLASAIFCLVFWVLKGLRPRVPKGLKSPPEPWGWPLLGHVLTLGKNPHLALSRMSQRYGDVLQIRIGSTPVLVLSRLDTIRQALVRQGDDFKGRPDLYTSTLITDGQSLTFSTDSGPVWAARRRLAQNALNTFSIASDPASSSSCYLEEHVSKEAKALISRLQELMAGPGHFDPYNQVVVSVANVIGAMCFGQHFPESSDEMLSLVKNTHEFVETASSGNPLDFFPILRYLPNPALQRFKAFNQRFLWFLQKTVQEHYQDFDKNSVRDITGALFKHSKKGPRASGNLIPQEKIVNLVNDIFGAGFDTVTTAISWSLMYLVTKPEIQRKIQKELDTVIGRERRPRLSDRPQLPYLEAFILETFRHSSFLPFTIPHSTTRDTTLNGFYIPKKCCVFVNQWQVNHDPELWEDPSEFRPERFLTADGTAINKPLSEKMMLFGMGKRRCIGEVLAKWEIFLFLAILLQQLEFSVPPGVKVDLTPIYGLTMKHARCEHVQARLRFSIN", "assay": "Human liver microsomal cytochrome P450 isozyme inhibition", "assay_type": "in vitro ADME", "details": "human liver microsomes", "method": "(§1) The aim of the project was to evaluate the inhibitory activity of the test article against human liver microsomal cytochrome P450 isozymes (CYP1A2, CYP2C9, CYP2C19, CYP2D6 and CYP3A4) using a 5-in-1 probe substrate for CYP isozymes.\n(§2) Mixed human liver microsomes (HLM) were purchased from Corning Inc. (Steuben, New York, USA) and stored at less than −80° C. prior to use. A diluted series of concentrations of the stock solution of the test article was added to an incubation system containing human liver microsomes, probe substrate and cofactors of the circulatory system. The control without the test article but with solvent was used as the enzyme activity control (100%). The concentration of metabolites generated by the probe substrate in the samples was determined by liquid chromatography-tandem mass spectrometry (LC-MS/MS). A non-linear regression analysis of the mean percentage activity of the test article against concentration was performed using SigmaPlot (V.11). The IC50 values were calculated using a three- or four-parameter inverse hyperbolic logarithmic function."}, "[2]": {"target": "T2, CYP2C19 (Homo sapiens, UniProt P33261)", "T2 construct": "Mixed human liver microsomes (HLM) were purchased from Corning Inc; tissue Corning Inc; host or cells: pooled human liver microsomes", "T2 sequence (P33261 whole entry)": "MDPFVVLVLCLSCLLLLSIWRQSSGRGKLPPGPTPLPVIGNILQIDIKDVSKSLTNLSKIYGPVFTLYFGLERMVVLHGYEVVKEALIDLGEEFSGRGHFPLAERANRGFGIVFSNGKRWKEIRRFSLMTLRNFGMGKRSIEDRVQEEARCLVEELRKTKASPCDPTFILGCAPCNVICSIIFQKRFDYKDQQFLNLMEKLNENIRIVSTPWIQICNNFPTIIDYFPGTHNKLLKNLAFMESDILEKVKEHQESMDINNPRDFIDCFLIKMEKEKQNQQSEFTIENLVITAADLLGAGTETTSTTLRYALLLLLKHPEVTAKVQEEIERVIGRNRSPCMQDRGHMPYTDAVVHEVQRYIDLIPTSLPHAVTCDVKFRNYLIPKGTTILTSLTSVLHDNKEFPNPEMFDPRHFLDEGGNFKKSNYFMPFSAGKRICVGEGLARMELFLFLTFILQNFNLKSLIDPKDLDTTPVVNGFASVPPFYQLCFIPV", "assay": "Human liver microsomal cytochrome P450 isozyme inhibition", "assay_type": "in vitro ADME", "details": "human liver microsomes", "method": "as §1, §2"}, "[3]": {"target": "T3, CYP2C9 (Homo sapiens, UniProt P11712)", "T3 construct": "Mixed human liver microsomes (HLM) were purchased from Corning Inc; tissue Corning Inc; host or cells: pooled human liver microsomes", "T3 sequence (P11712 whole entry)": "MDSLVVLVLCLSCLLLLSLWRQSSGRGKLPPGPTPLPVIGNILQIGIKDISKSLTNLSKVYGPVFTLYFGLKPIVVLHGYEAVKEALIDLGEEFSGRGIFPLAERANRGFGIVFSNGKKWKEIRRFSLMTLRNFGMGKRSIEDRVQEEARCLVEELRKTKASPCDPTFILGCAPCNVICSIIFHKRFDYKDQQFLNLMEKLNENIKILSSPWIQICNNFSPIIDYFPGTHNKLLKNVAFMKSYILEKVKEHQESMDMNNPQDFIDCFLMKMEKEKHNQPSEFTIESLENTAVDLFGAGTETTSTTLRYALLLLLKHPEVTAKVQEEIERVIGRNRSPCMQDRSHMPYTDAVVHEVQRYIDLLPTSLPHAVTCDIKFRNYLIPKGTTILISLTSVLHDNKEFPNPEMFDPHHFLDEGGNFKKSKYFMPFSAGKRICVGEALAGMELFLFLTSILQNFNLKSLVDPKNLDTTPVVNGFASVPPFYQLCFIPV", "assay": "Human liver microsomal cytochrome P450 isozyme inhibition", "assay_type": "in vitro ADME", "details": "human liver microsomes", "method": "as §1, §2"}, "[4]": {"assay": "Solid stability test for Crystal Form A (high temperature, high humidity, strong light, accelerated conditions)", "assay_type": "physicochemical", "text": "See Table 3 below for chromatographic conditions for the HPLC method of solid stability testing:\nAccording to the Guideline for Stability Testing of APIs and Formulations (Chinese Pharmacopoeia 2015 Edition, Volume IV, General Principles 9001).\nAfter being placed under high temperature and high humidity conditions, samples were placed in a desiccator for examination. On the 5th, 10th and 30th days, samples were taken for testing, and the results were compared with the initial test results on day 0. Samples placed under strong light condition were covered with a transparent lid and sealed with a sealing film and samples were taken on the 5th and 10th for testing and the results were compared to the initial test results on day 0. […] Each aliquot was placed in a double-layer LDPE bag. Each layer of LDPE bag was sealed by tying, respectively. Then the LDPE bag was placed in an aluminum foil bag and heat sealed and placed at 25° C./60% relative humidity. Samples were taken at the 3th month, 6th month, 9th month and 12th month, and placed under 40° C./75% relative humidity. Samples were taken at the 1st month, 2^ed month, 3th month and 6th month, respectively. The test results were compared with the initial test results on day 0."}, "[5]": {"details": "25° C./60% relative humidity, sealed, 3 months"}, "[6]": {"details": "25° C./60% relative humidity, sealed, 6 months"}, "[7]": {"details": "25° C./60% relative humidity, sealed, 9 months"}, "[8]": {"details": "25° C./60% relative humidity, sealed, 12 months"}, "[9]": {"details": "40° C., 75% relative humidity, sealed, 1 month"}, "[10]": {"details": "40° C., 75% relative humidity, sealed, 2 months"}, "[11]": {"details": "40° C., 75% relative humidity, sealed, 3 months"}, "[12]": {"details": "40° C., 75% relative humidity, sealed, 6 months"}, "[13]": {"details": "High humidity (room temperature/92.5% relative humidity, open), 5 days"}, "[14]": {"details": "High humidity (room temperature/92.5% relative humidity, open), 10 days"}, "[15]": {"details": "High humidity (room temperature/92.5% relative humidity, open), 30 days"}, "[16]": {"details": "High temperature (60° C., open), 5 days"}, "[17]": {"details": "High temperature (60° C., open), 10 days"}, "[18]": {"details": "High temperature (60° C., open), 30 days"}, "[19]": {"details": "Strong light (4500 ± 500 lux-hr, 90 μw-hr/cm^2, sealed), 5 days"}, "[20]": {"details": "Strong light (4500 ± 500 lux-hr, 90 μw-hr/cm^2, sealed), 10 days"}}}
{"compound": "CCCNS(=O)(=O)Nc1ncnc(OCCOc2ncc(Br)cn2)c1-c1ccc(Br)cc1", "note": "[Macitentan, reference compound]", "values": [{"measurement": "IC50", "setting": "[1]", "value": 37.4, "unit": "µM"}, {"measurement": "IC50", "setting": "[2]", "value": 31.7, "unit": "µM"}, {"measurement": "Inhibition on the isozyme CYP2C9 (in words)", "setting": "[3]", "value": "moderate inhibition"}]}
{"compound": "COCCNS(=O)(=O)Nc1ncnc(OCCOc2ncc(Br)cn2)c1-c1ccc2c(c1)OCO2", "values": [{"measurement": "Appearance", "setting": "[4]; 0 day (initial)", "value": "White powder"}, {"measurement": "Crystal Form", "setting": "[4]; 0 day (initial)", "value": "Crystal Form A"}, {"measurement": "Crystal Form A of the compound of formula (I) (%)", "setting": "[4]; 0 day (initial)", "value": 99.2, "unit": "%"}, {"measurement": "Total impurities (%)", "setting": "[4]; 0 day (initial)", "value": 0.26, "unit": "%"}, {"measurement": "Appearance", "setting": "[4]; [5]", "value": "White powder"}, {"measurement": "Crystal Form", "setting": "[4]; [5]", "value": "Crystal Form A"}, {"measurement": "Crystal Form A of the compound of formula (I) (%)", "setting": "[4]; [5]", "value": 100.2, "unit": "%"}, {"measurement": "Total impurities (%)", "setting": "[4]; [5]", "value": 0.13, "unit": "%"}, {"measurement": "Appearance", "setting": "[4]; [6]", "value": "White powder"}, {"measurement": "Crystal Form", "setting": "[4]; [6]", "value": "Crystal Form A"}, {"measurement": "Crystal Form A of the compound of formula (I) (%)", "setting": "[4]; [6]", "value": 100.1, "unit": "%"}, {"measurement": "Total impurities (%)", "setting": "[4]; [6]", "value": 0.20, "unit": "%"}, {"measurement": "Appearance", "setting": "[4]; [7]", "value": "White powder"}, {"measurement": "Crystal Form A of the compound of formula (I) (%)", "setting": "[4]; [7]", "value": 100.0, "unit": "%"}, {"measurement": "Total impurities (%)", "setting": "[4]; [7]", "value": 0.13, "unit": "%"}, {"measurement": "Appearance", "setting": "[4]; [8]", "value": "White powder"}, {"measurement": "Crystal Form A of the compound of formula (I) (%)", "setting": "[4]; [8]", "value": 100.1, "unit": "%"}, {"measurement": "Total impurities (%)", "setting": "[4]; [8]", "value": 0.16, "unit": "%"}, {"measurement": "Appearance", "setting": "[4]; [9]", "value": "White powder"}, {"measurement": "Crystal Form A of the compound of formula (I) (%)", "setting": "[4]; [9]", "value": 99.2, "unit": "%"}, {"measurement": "Total impurities (%)", "setting": "[4]; [9]", "value": 0.14, "unit": "%"}, {"measurement": "Appearance", "setting": "[4]; [10]", "value": "White powder"}, {"measurement": "Crystal Form A of the compound of formula (I) (%)", "setting": "[4]; [10]", "value": 99.3, "unit": "%"}, {"measurement": "Total impurities (%)", "setting": "[4]; [10]", "value": 0.14, "unit": "%"}, {"measurement": "Appearance", "setting": "[4]; [11]", "value": "White powder"}, {"measurement": "Crystal Form", "setting": "[4]; [11]", "value": "Crystal Form A"}, {"measurement": "Crystal Form A of the compound of formula (I) (%)", "setting": "[4]; [11]", "value": 100.6, "unit": "%"}, {"measurement": "Total impurities (%)", "setting": "[4]; [11]", "value": 0.13, "unit": "%"}, {"measurement": "Appearance", "setting": "[4]; [12]", "value": "White powder"}, {"measurement": "Crystal Form", "setting": "[4]; [12]", "value": "Crystal Form A"}, {"measurement": "Crystal Form A of the compound of formula (I) (%)", "setting": "[4]; [12]", "value": 100.2, "unit": "%"}, {"measurement": "Total impurities (%)", "setting": "[4]; [12]", "value": 0.20, "unit": "%"}, {"measurement": "Appearance", "setting": "[4]; [13]", "value": "White powder"}, {"measurement": "Crystal Form A of the compound of formula (I) (%)", "setting": "[4]; [13]", "value": 99.7, "unit": "%"}, {"measurement": "Total impurities (%)", "setting": "[4]; [13]", "value": 0.30, "unit": "%"}, {"measurement": "Appearance", "setting": "[4]; [14]", "value": "White powder"}, {"measurement": "Crystal Form A of the compound of formula (I) (%)", "setting": "[4]; [14]", "value": 99.5, "unit": "%"}, {"measurement": "Total impurities (%)", "setting": "[4]; [14]", "value": 0.31, "unit": "%"}, {"measurement": "Appearance", "setting": "[4]; [15]", "value": "White powder"}, {"measurement": "Crystal Form A of the compound of formula (I) (%)", "setting": "[4]; [15]", "value": 99.5, "unit": "%"}, {"measurement": "Total impurities (%)", "setting": "[4]; [15]", "value": 0.15, "unit": "%"}, {"measurement": "Appearance", "setting": "[4]; [16]", "value": "White powder"}, {"measurement": "Crystal Form A of the compound of formula (I) (%)", "setting": "[4]; [16]", "value": 100.1, "unit": "%"}, {"measurement": "Total impurities (%)", "setting": "[4]; [16]", "value": 0.30, "unit": "%"}, {"measurement": "Appearance", "setting": "[4]; [17]", "value": "White powder"}, {"measurement": "Crystal Form A of the compound of formula (I) (%)", "setting": "[4]; [17]", "value": 100.0, "unit": "%"}, {"measurement": "Total impurities (%)", "setting": "[4]; [17]", "value": 0.31, "unit": "%"}, {"measurement": "Appearance", "setting": "[4]; [18]", "value": "White powder"}, {"measurement": "Crystal Form A of the compound of formula (I) (%)", "setting": "[4]; [18]", "value": 99.1, "unit": "%"}, {"measurement": "Total impurities (%)", "setting": "[4]; [18]", "value": 0.14, "unit": "%"}, {"measurement": "Appearance", "setting": "[4]; [19]", "value": "White powder"}, {"measurement": "Crystal Form A of the compound of formula (I) (%)", "setting": "[4]; [19]", "value": 99.7, "unit": "%"}, {"measurement": "Total impurities (%)", "setting": "[4]; [19]", "value": 0.29, "unit": "%"}, {"measurement": "Appearance", "setting": "[4]; [20]", "value": "White powder"}, {"measurement": "Crystal Form A of the compound of formula (I) (%)", "setting": "[4]; [20]", "value": 99.6, "unit": "%"}, {"measurement": "Total impurities (%)", "setting": "[4]; [20]", "value": 0.30, "unit": "%"}, {"measurement": "Solid stability (conclusion in words)", "setting": "[4]; high temperature, high humidity or strong light condition", "value": "good stability"}]}
